# From publication PMC6222718, “Ethylenediamine Derived Carboxamides of Betulinic and Ursolic Acid as Potential Cytotoxic Agents” (Molecules : A Journal of Synthetic Chemistry and Natural …, 2018)
# How the values were obtained:
# [1] = test system: 8505C (thyroid carcinoma); assay: SRB cytotoxicity assay, 8505C; type: cell-based, human; conditions: for EC50: Homo sapiens, SRB assay, 96 h of treatment, 8505C; for Selectivity index (SI) 8505C: SI = EC50 (NIH 3T3)/EC50 (8505C)
# Method: (§1) The cytotoxicity of ursolic and betulinic carboxamides 3–30 was determined in sulforhodamine B (SRB) assays.
# (§2) The cell lines used were human cancer cell lines: 518A2 (melanoma), A2780 (ovarian carcinoma), HT29 (colon adenocarcinoma), MCF-7 (breast adenocarcinoma), 8505C (thyroid carcinoma) and non-malignant mouse fibroblasts NIH 3T3. Cultures were maintained as monolayers in RPMI 1640 medium with L-glutamine (Capricorn Scientific GmbH, Ebsdorfergrund, Germany) supplemented with 10% heat inactivated fetal bovineserum (Sigma-Aldrich Chemie GmbH, Steinheim, Germany) and penicillin/streptomycin (Capricorn Scientific GmbH, Ebsdorfergrund, Germany) at 37 °C in a humidified atmosphere with 5% CO2.
# (§3) The cytotoxicity of the compounds was evaluated using the sulforhodamine-B (Kiton-Red S, ABCR) micro culture colorimetric assay. Cells were seeded into 96-well plates on day 0 at appropriate cell densities to prevent confluence of the cells during the period of experiment. After 24 h, the cells were treated with 6 different concentrations (1, 3, 7, 12, 20 and 30 µM) minimum. The final concentration of DMSO/DMF never exceeded 0.5%, which was non-toxic to the cells. After a 96 h treatment, the supernatant medium from the 96-well plates was discarded, the cells were fixed with 10% trichloroacetic acid (TCA) and allowed to rest at 4 °C. After 24 h fixation, the cells were washed in a strip washer and dyed with SRB solution (100 µL, 0.4% in 1% acetic acid) for about 20 min. After dying, the plates were washed four times with 1% acetic acid to remove the excess of the dye and allowed to air-dry overnight. Tris base solution (200 µL, 10 mM) was added to each well and absorbance was measured at λ = 570 nm using a 96-well plate reader (Tecan Spectra, Crailsheim, Germany). The EC50 values were averaged from three independent experiments performed each in triplicate calculated from semi logarithmic dose response curves applying a non-linear 4P Hills-slope equation (GraphPad Prism5; variables top and bottom were set to 100 and 0, respectively).
# [2] = test system: MCF-7 (breast adenocarcinoma); assay: SRB cytotoxicity assay, MCF-7; type: cell-based, human; conditions: for EC50: Homo sapiens, MCF7, SRB assay, 96 h of treatment, MCF-7; for Selectivity index (SI) MCF-7: SI = EC50 (NIH 3T3)/EC50 (MCF-7)
# Method: as §1, §2, §3
# 518A2 (melanoma) = assay: SRB cytotoxicity assay, 518A2; type: cell-based, human; conditions: for EC50: Homo sapiens, SRB assay, 96 h of treatment, 518A2; for Selectivity index (SI) 518A2: SI = EC50 (NIH 3T3)/EC50 (518A2)
# Method: as §1, §2, §3
# [3] = test system: HT29 (colon adenocarcinoma); assay: SRB cytotoxicity assay, HT29; type: cell-based, human; conditions: for EC50: Homo sapiens, HT-29, SRB assay, 96 h of treatment, HT29; for Selectivity index (SI) HT29: SI = EC50 (NIH 3T3)/EC50 (HT29)
# Method: as §1, §2, §3
# [4] = test system: A2780 (ovarian carcinoma); assay: SRB cytotoxicity assay, A2780; type: cell-based, human; conditions: for EC50: Homo sapiens, SRB assay, 96 h of treatment, A2780; for Selectivity index (SI) A2780: SI = EC50 (NIH 3T3)/EC50 (A2780)
# Method: as §1, §2, §3
# [5] = test system: non-malignant mouse fibroblasts NIH 3T3; assay: SRB cytotoxicity assay, NIH 3T3; type: cell-based; conditions: NIH3T3, 96 h of treatment
# Method: as §1, §2, §3
Structure (SMILES),EC50 [1] [µM],Selectivity index (SI) 8505C [1],EC50 [2] [µM],Selectivity index (SI) MCF-7 [2],EC50 (518A2 (melanoma)) [µM],Selectivity index (SI) 518A2 (518A2 (melanoma)),EC50 [3] [µM],Selectivity index (SI) HT29 [3],EC50 [4] [µM],Selectivity index (SI) A2780 [4],EC50 [5] [µM],melting point
"C=C(C)C1CC[C@]2(C(=O)NCCOCCN)CC[C@]3(C)C(CCC4[C@@]5(C)CC[C@H](OC(C)=O)C(C)(C)C5CC[C@]43C)C12 (stereo partly drawn) [Compound 23, (3β)-N-[2-(2-Aminoethoxy)ethyl]-3-acetyloxy-lup-20(29)-en-28-amide]",2.2 ± 0.81,0.45,1.4 ± 0.2,0.71,1.9 ± 0.01,0.53,0.4 ± 0.1,2.50,1.5 ± 0.1,0.67,1 ± 0.1,109 to 112 °C
"C=C(C)C1CC[C@]2(C(=O)NCCN3CCNCC3)CC[C@]3(C)C(CCC4[C@@]5(C)CC[C@H](O)C(C)(C)C5CC[C@]43C)C12 (stereo partly drawn) [Compound 28, (3β)-N-(2-Piperazin-1-ylethyl)-3-hydroxy-lup-20(29)-en-28-amide]",0.85 ± 0.17,0.94,0.3 ± 0.02,2.67,0.9 ± 0.21,0.89,0.8 ± 0.18,1.00,0.8 ± 0.04,1.00,0.8 ± 0.22,146 to 148 °C (dec.)
"C=C(C)C1CC[C@]2(C(=O)NCCCCN)CC[C@]3(C)C(CCC4[C@@]5(C)CC[C@H](O)C(C)(C)C5CC[C@]43C)C12 (stereo partly drawn) [Compound 29, (3β)-N-(4-Aminobutyl)-3-hydroxy-lup-20(29)-en-28-amide]",0.8 ± 0.26,0.63,0.6 ± 0.1,0.83,0.4 ± 0.06,1.25,0.4 ± 0.1,1.25,0.6 ± 0.1,0.83,0.5 ± 0.1,130 to 133 °C
"C=C(C)C1CC[C@]2(C(=O)NCCOCCN)CC[C@]3(C)C(CCC4[C@@]5(C)CC[C@H](O)C(C)(C)C5CC[C@]43C)C12 (stereo partly drawn) [Compound 30, (3β)-N-[2-(2-Aminoethoxy)ethyl]-3-hydroxy-lup-20(29)-en-28-amide]",0.2 ± 0.01,2.00,0.4 ± 0.2,1.00,0.5 ± 0.04,0.80,0.5 ± 0.07,0.80,0.5 ± 0.04,0.80,0.4 ± 0.07,182 to 183 °C
